# Test results taken from patent US6943195B2, “Cycloalkenone derivative” (Nikken Chemicals Co., Ltd, priority 2001, dated 2005).
# Key:
# [1] = test system: T1, Type IV PDE; assay: PDE IV inhibitory activity (Test Example 1); assay type: biochemical, rat; settings: for IC50: 3H-cAMP substrate; for PDE IV inhibitory activity relative to that of the racemate: ratio to racemate
# T1 construct: PDE IV partially purified from rat neutrophils, 3H-cAMP substrat; PDE IV from rat neutrophils, 3H-cAMP substrate; other: ratio to racemate
# Experimental: (§1) To investigate the PDE inhibitory activity and selectivity of the compound, Type I, Type III, Type IV and Type V, that is, four types of PDE isozymes were prepared Trends Pharmacol. Sci. (TiPS), vol. 12, 19-27(1991). The Type I PDE used was one purchased from Sigma. Further, the Type III, Type IV and Type V PDE isozymes used were those partially purified from the blood platelets (Type III and Type V) or neutrophils (Type IV) taken from rats. Each enzyme source was homogenized in a buffer (pH6.5) containing 20 mM Bis-Tris, EDTA (ethylene diamine tetraacetate) 2 mM, PMSF (phenylmethylsulfonyl fluoride) 0.1 mM, 2-mercaptoethanol 5 mM, pepstatin 0.001 mM, and leupeptin 0.01 mM and centrifuged at 30000×G for 30 minutes. The centrifuged supernatent was passed through an ion exchange column (Q Sepharose Fast Flow, made by Pharmacia) and eluted by 0-1M sodium acetate. The partially purified isozyme was identified by investigating the effects of known selective inhibitors.
# (§2) The tested compound was dissolved in DMSO (dimethylsulfoxide) and added to 50 mM tris-HCl buffer containing 5 mM […]. To this reaction solution, the above PDE isozyme and ^3H-cAMP (when Type III or Type IV of PDE) or ^3H-cGMP (when Type I or Type V of PDE) was added, as a substrate, and the mixture reacted at 30° C. for 30 minutes. After the reaction, the reaction mixture was placed in a 100° C. boiling solution for 5 minutes to stop the reaction. The nucleotide produced by the PDE was decomposed by 5′-nucleotidase into ^3H-adenosine or ^3H-guanosine. The unreacted substrate and reaction product were passed through an ion exchange column (QAE Sephadex, made by Pharmacia)to separate them. The radioactivity of the eluted ^3H-nucleoside was measured by a liquid sintillation counter. The inhibitory activity of each tested compound was indicated by the IC50 value (μM). The inhibitory activity against Type IV was shown in Table 2, while the inhibitory activity against Type III was shown in Table 3. Further, the inhibitory activity of each test compound to Type I and Type V was less than 1/10 to Type IV.
# [2] = test system: Type IV PDE; assay: PDE IV inhibitory activity (Test Example 1); assay type: biochemical, rat; settings: PDE IV versus PDE III, compared with the racemate
# Experimental: as §1, §2
# [3] = molecular target: T2, Type III PDE (Rattus norvegicus, UniProt Q62865); assay: PDE III inhibitory activity (Test Example 1); assay type: biochemical; settings: for IC50: Table I, PDE III partially purified from rat blood platelets, 3H-cAMP substrate; for PDE III inhibitory activity relative to that of the racemate: ratio to racemate
# T2 construct: from tissue; host or cells: rat blood platelets
# T2 sequence (Q62865 1-1141): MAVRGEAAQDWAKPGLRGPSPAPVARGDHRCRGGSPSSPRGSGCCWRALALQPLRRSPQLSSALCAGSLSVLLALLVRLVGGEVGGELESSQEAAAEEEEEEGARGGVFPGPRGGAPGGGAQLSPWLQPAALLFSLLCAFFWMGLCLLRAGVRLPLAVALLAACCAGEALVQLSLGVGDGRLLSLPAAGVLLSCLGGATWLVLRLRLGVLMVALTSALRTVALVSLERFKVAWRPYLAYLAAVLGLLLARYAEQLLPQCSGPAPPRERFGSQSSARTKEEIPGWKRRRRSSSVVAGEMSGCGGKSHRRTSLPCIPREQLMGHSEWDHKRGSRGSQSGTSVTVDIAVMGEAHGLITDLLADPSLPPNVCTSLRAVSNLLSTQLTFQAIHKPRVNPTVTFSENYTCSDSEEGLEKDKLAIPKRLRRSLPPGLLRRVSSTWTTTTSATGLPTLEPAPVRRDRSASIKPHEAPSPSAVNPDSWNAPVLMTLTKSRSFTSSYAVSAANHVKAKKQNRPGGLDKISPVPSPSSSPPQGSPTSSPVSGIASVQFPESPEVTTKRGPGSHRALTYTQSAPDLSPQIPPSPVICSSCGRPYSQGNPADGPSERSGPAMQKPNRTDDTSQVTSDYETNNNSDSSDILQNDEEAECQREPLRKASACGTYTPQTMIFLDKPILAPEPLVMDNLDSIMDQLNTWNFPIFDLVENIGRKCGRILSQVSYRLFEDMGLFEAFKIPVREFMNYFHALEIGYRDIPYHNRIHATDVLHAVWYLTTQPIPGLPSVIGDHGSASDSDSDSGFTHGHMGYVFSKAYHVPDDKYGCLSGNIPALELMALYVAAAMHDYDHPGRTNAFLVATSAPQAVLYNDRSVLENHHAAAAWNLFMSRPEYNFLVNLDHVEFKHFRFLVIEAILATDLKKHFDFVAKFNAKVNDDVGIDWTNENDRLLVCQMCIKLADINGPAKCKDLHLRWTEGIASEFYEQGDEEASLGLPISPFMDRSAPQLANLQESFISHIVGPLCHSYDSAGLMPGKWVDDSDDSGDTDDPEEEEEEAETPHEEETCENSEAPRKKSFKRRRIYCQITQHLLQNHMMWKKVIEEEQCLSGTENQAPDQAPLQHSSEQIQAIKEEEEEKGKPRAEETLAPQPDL
# Experimental: as §1, §2
# [4] = Table I, PDE IV partially purified from rat neutrophils
# [5] = Table II, PDE IV from rat neutrophils
# [6] = listed as The compound of the present invention
SMILES,"IC50 [1, 4]","IC50 [1, 5]",PDE IV inhibitory activity relative to that of the racemate [1],selectivity with respect to PDE IV [2],IC50 [3],PDE III inhibitory activity relative to that of the racemate [3],"PDE IV inhibitory activity relative to that of the racemate [1, 6]","PDE III inhibitory activity relative to that of the racemate [3, 6]"
"COc1ccc(NC2=C(C)C(=O)CC2)cc1O[C@H]1C[C@@H]2CC[C@H]1C2 [(+)-isomer, (+)-3-[3-[(1S,2S,4R)-bicyclo[2.2.1]hept-2-yloxy]-4-methoxyanilino]-2-methyl-2-cyclopenten-1-one]",360 nM,360 nM,about ¾,low,1570 nM,twice or more of that of the racemate,–,–
"COc1ccc(NC2=C(C)C(=O)CC2)cc1O[C@@H]1C[C@H]2CC[C@@H]1C2 [(−)-isomer, (−)-3-[3-[(1R,2R,4S)-bicyclo[2.2.1]hept-2-yloxy]-4-methoxyanilino]-2-methyl-2-cyclopenten-1-one]",120 nM,120 nM,about twice that of the racemate,high,9030 nM,less than half of that of the racemate,at least two times that of a racemate,less than ½
"COc1ccc(NC2=C(C)C(=O)CC2)cc1O[C@@H]1C[C@H]2CC[C@@H]1C2 (racemic) [(±)-isomer, (±)-3-[3-[(1RS,2RS,4SR)-bicyclo[2.2.1]hept-2-yloxy]-4-methoxyanilino]-2-methyl-2-cyclopenten-1-one, reference compound]",270 nM,270 nM,–,–,3860 nM,–,–,–
